Source: paper PMC13171625, “Breaking the ‘rule-of-five’ to access bridged bicyclic heteroaromatic bioisosteres” (Nature Synthesis, 2026)
Like-named read-outs stand apart in the source and are kept apart here.

Key:
[1] = reference substances used to obtain the regression equation; cited from earlier work
[2] = LogP Assay (HPLC retention, pH 7.4); details: X-Bridge C18 column (retention-time method)
[3] = Metabolic stability in human liver microsomes; details: for Remaining (T60): 60 min; for Remaining (NCF60): 1 h incubation, human liver microsomes, no co-factor (no NADPH); for CLint scaled at 1 μM / half-life at 1 μM / microsomal CLint at 1 μM / remaining at 5 min, 1 μM / remaining at 0.5 h, 1 μM / remaining at 0.75 h, 1 μM: human
[4] = human, microsomes
physchem = details: pH 7.4
in vitro = details: human, microsomes
[5] = human liver microsomes with NADPH

CC(=O)c1ccncc1 [4-Acetylpyridine]
Log P of reference substance [1]: 0.5

COc1ccc(S(=O)(=O)N2CCN(C(=O)OCc3ccccc3)CC2C(=O)NO)cc1 (stereo not shown) [DB04232]
chromatographic logP [2]: 1.43
Remaining (T60) [3, 5]: 30.6%
Remaining (NCF60) [3]: 110.2%
CLint scaled at 1 μM ([3]; liver microsomes): 34.6 mL/min/kg
half-life at 1 μM ([3]; liver microsomes): 36 min
microsomal CLint at 1 μM ([3]; liver microsomes): 38.5 µL/min/mg
remaining at 5 min, 1 μM ([3]; liver microsomes): 82%
remaining at 0.5 h, 1 μM ([3]; liver microsomes): 59.3%
remaining at 0.75 h, 1 μM ([3]; liver microsomes): 38.5%

O=C(O)Cc1ccccc1Nc1c(Cl)cccc1Cl [Diclofenac]
%Remaining ([3]; 15 min, human liver microsomes with NADPH): 15.6%
Remaining (T60) [3, 5]: 0.1%
Remaining (NCF60) [3]: 96.1%
CLint(mic) (microsome intrinsic clearance) ([3]; human liver microsomes 0.5 mg/mL, 1 μM compound, NADPH): 232.5 µL/min/mg
CLint scaled at 1 μM ([3]; liver microsomes): 209 mL/min/kg
half-life at 1 μM ([3]; liver microsomes): 6 min
remaining at 5 min, 1 μM ([3]; liver microsomes): 49.4%
remaining at 0.5 h, 1 μM ([3]; liver microsomes): 2.6%
remaining at 0.75 h, 1 μM ([3]; liver microsomes): 0.5%

CCc1ccccc1 [Ethylbenzene]
Log P of reference substance [1]: 3.2

COc1ccc(S(=O)(=O)N2C3CN(C(=O)OCc4ccccc4)CC2(C(=O)NO)C3)cc1 (stereo not shown) [compound 68]
metabolic stability compared with DB04232 ([4]; 1 μM): at least as metabolically stable as DB04232
Remaining (NCF60) ([4]; 1 h, 1 μM): 86.9%
Remaining (T60) ([4]; 1 h, 1 μM): 28.3%
chromatographic logP (physchem): 0.946
CLint scaled at 1 μM (in vitro): 34.3 mL/min/kg
half-life at 1 μM (in vitro): 36.3 min
remaining at 5 min, 1 μM (in vitro): 71.3%
remaining at 0.5 h, 1 μM (in vitro): 45.9%
remaining at 0.75 h, 1 μM (in vitro): 36.6%
microsomal CLint at 1 μM ([3]; microsomes): 38.1 µL/min/mg
